In patent US9334289B2, “Cephem compound having catechol or pseudo-catechol structure” (SHIONOGI & CO., LTD., priority 2011, dated 2016):
In brackets after ≈: the same amount, converted by molar mass. Read-outs that look alike come from different tables or passages of the source.

Columns and labels:
Assay in all cases: MIC, CLSI broth microdilution, Test Example 1
Format in all cases: cell-based
[1] = tested on: P. aeruginosa SR24; details: Pseudomonas aeruginosa
[2] = tested on: P. aeruginosa SR24837; details: Pseudomonas aeruginosa
Description: (§1) Measurement of Minimum Inhibitory Concentration (MIC: μg/mL) was conducted according to CLSI (Clinical and Laboratory Standards Institute) method, and the amount of bacteria for inoculation was 5×10^5 cfu/mL, and cation-adjusted Mueller Hinton broth containing human apo-transferrin was used as a test medium, and the experiment was conducted using broth microdilution method. The bacteria used are listed below.

[3] = tested on: E. coli ATCCBAA-200; details: Escherichia coli, ATCCBAA200; SHV-4 ESBL producing strain; cation-adjusted Mueller Hinton broth containing human apo-transferrin; 5×10^5 cfu/mL; read-out: Minimum Inhibitory Concentration (MIC) E. coli ATCC BAA-200
Description: as §1

[4] = tested on: A. baumannii SR27323; details: Acinetobacter baumannii
Description: as §1

[5] = tested on: K. pneumoniae ATCCBAA-1705; details: Klebsiella pneumoniae
Description: as §1

[6] = tested on: E. coli ATCCBAA-199; details: Escherichia coli, ATCCBAA199; SHV-3 ESBL producing strain; cation-adjusted Mueller Hinton broth containing human apo-transferrin; 5×10^5 cfu/mL; read-out: Minimum Inhibitory Concentration (MIC) E. coli ATCC BAA-199
Description: as §1

[7] = tested on: P. aeruginosa SR27060; details: Pseudomonas aeruginosa
Description: as §1

[8] = SR24, Ceftazidime resistance strain, cation-adjusted Mueller Hinton broth containing human apo-transferrin, 5×10^5 cfu/mL, read-out: Minimum Inhibitory Concentration (MIC) P. aeruginosa SR24
[9] = SR24837, PER-1 ESBL producing strain, cation-adjusted Mueller Hinton broth containing human apo-transferrin, 5×10^5 cfu/mL, read-out: Minimum Inhibitory Concentration (MIC) P. aeruginosa SR24837
[10] = SR27323, OXA-23, OXA-58 carbapenemase producing strain, cation-adjusted Mueller Hinton broth containing human apo-transferrin, 5×10^5 cfu/mL, read-out: Minimum Inhibitory Concentration (MIC) A. baumannii SR27323
[11] = ATCCBAA1705, KPC-2 carbapenemase producing strain, cation-adjusted Mueller Hinton broth containing human apo-transferrin, 5×10^5 cfu/mL, read-out: Minimum Inhibitory Concentration (MIC) K. pneumoniae ATCCBAA-1705
[12] = SR27060, IMP-1 MBL producing strain (carbapenem resistance strain), cation-adjusted Mueller Hinton broth containing human apo-transferrin, 5×10^5 cfu/mL, read-out: Minimum Inhibitory Concentration (MIC) P. aeruginosa SR27060

| MIC [1, 8] | MIC [2, 9] | MIC [3] | MIC [4, 10] | MIC [5, 11] | MIC [6] | MIC [7, 12] | Compound | MIC ([1]; SR24, read-out: Minimum Inhibitory Concentration (MIC) P. aeruginosa SR24) | MIC ([2]; SR24837, read-out: Minimum Inhibitory Concentration (MIC) P. aeruginosa SR24837) | MIC ([4]; SR27323, read-out: Minimum Inhibitory Concentration (MIC) A. baumannii SR27323) | MIC ([5]; ATCCBAA1705, read-out: Minimum Inhibitory Concentration (MIC) K. pneumoniae ATCCBAA-1705) | MIC ([7]; SR27060, read-out: Minimum Inhibitory Concentration (MIC) P. aeruginosa SR27060) |
| --- | --- | --- | --- | --- | --- | --- | --- | --- | --- | --- | --- | --- |
| 0.063 µg/mL | 0.25 µg/mL | 0.5 µg/mL | 1 µg/mL | ≤ 0.031 µg/mL | 0.25 µg/mL | 1 µg/mL | CC(C)(O/N=C(\C(=O)N[C@@H]1C(=O)N2C(c3nn[n-]n3)=C(C[n+]3ccc(NCc4ccc(O)c(O)c4Cl)cc3)CS[C@H]12)c1csc(N)n1)C(=O)[O-].[Na+] [Compound I-49] | – | – | – | – | – |
| 0.25 µg/mL | 2 µg/mL | 0.5 µg/mL | 1 µg/mL | ≤ 0.031 µg/mL | 0.25 µg/mL | 1 µg/mL | CC(C)(O/N=C(\C(=O)N[C@@H]1C(=O)N2C(c3nnn[n-]3)=C(C[N+]3(CCNC(=O)c4cc(O)c(O)cc4Cl)CCCC3)CS[C@H]12)c1csc(N)n1)C(=O)[O-].[Na+] [Compound I-50] | – | – | – | – | – |
| 0.25 µg/mL | 2 µg/mL | 0.5 µg/mL | 1 µg/mL | ≤ 0.031 µg/mL | 0.125 µg/mL | 1 µg/mL | CC(C)(O/N=C(\C(=O)N[C@@H]1C(=O)N2C(c3nnn[n-]3)=C(C[N+]3(CCNC(=O)c4cc(O)c(O)c(Cl)c4)CCCC3)CS[C@H]12)c1csc(N)n1)C(=O)[O-].[Na+] [Compound I-52] | – | – | – | – | – |
| 0.25 µg/mL (≈ 0.308 µM) | 0.063 µg/mL (≈ 0.0777 µM) | 0.125 µg/mL (≈ 0.154 µM) | 1 µg/mL (≈ 1.23 µM) | ≤ 0.031 µg/mL | 0.063 µg/mL (≈ 0.0777 µM) | 0.5 µg/mL (≈ 0.617 µM) | CC(C)(O/N=C(\C(=O)N[C@@H]1C(=O)N2C(c3nnn[nH]3)=C(C[N+]3(CCNC(=O)c4cc(Cl)c(O)c(O)c4Cl)CCCC3)CS[C@H]12)c1csc(N)n1)C(=O)[O-] [Compound I-53] | – | – | – | – | – |
| ≤ 0.031 µg/mL | 0.25 µg/mL | 0.5 µg/mL | 1 µg/mL | ≤ 0.031 µg/mL | 0.25 µg/mL | 0.25 µg/mL | CC(C)(O/N=C(\C(=O)N[C@@H]1C(=O)N2C(c3nnn[n-]3)=C(C[N+]3(CCNC(=O)c4ccc(O)c(O)c4F)CCCC3)CS[C@H]12)c1csc(N)n1)C(=O)[O-].[Na+] [Compound I-54] | – | – | – | – | – |
| 0.25 µg/mL | 0.5 µg/mL | 1 µg/mL | 2 µg/mL | ≤ 0.031 µg/mL | 0.25 µg/mL | 1 µg/mL | CC(C)(O/N=C(\C(=O)N[C@@H]1C(=O)N2C(c3nnn[n-]3)=C(C[N+]3(CCNC(=O)c4cc(O)c(O)cc4F)CCCC3)CS[C@H]12)c1csc(N)n1)C(=O)[O-].[Na+] [Compound I-55] | – | – | – | – | – |
| ≤ 0.031 µg/mL | 0.25 µg/mL (≈ 0.329 µM) | 0.25 µg/mL (≈ 0.329 µM) | 0.5 µg/mL (≈ 0.658 µM) | ≤ 0.031 µg/mL | 0.125 µg/mL (≈ 0.165 µM) | 0.5 µg/mL (≈ 0.658 µM) | CC(C)(O/N=C(\C(=O)N[C@@H]1C(=O)N2C(c3nnn[nH]3)=C(C[N+]3(CCNC(=O)c4cc(O)c(O)c(F)c4)CCCC3)CS[C@H]12)c1csc(N)n1)C(=O)[O-] [Compound I-56] | – | – | – | – | – |
| 0.125 µg/mL | 0.5 µg/mL | 0.5 µg/mL | 1 µg/mL | ≤ 0.031 µg/mL | 0.25 µg/mL | 0.5 µg/mL | CC(C)(O/N=C(\C(=O)N[C@@H]1C(=O)N2C(c3nnn[n-]3)=C(Cn3cc4ccc(CNC(=O)c5ccc(O)c(O)c5Cl)c[n+]4c3)CS[C@H]12)c1csc(N)n1)C(=O)[O-].[Na+] [Compound I-58] | – | – | – | – | – |

| Compound | MIC [1, 8] | MIC [2, 9] | MIC [3] | MIC [4, 10] | MIC [5, 11] | MIC [6] | MIC [7, 12] | MIC ([1]; SR24, read-out: Minimum Inhibitory Concentration (MIC) P. aeruginosa SR24) | MIC ([2]; SR24837, read-out: Minimum Inhibitory Concentration (MIC) P. aeruginosa SR24837) | MIC ([4]; SR27323, read-out: Minimum Inhibitory Concentration (MIC) A. baumannii SR27323) | MIC ([5]; ATCCBAA1705, read-out: Minimum Inhibitory Concentration (MIC) K. pneumoniae ATCCBAA-1705) | MIC ([7]; SR27060, read-out: Minimum Inhibitory Concentration (MIC) P. aeruginosa SR27060) |
| --- | --- | --- | --- | --- | --- | --- | --- | --- | --- | --- | --- | --- |
| CC(C)(O/N=C(\C(=O)N[C@@H]1C(=O)N2C(c3nnn[n-]3)=C(C[n+]3ccc(CNC(=O)c4ccc(O)c(O)c4Cl)cc3)CS[C@H]12)c1csc(N)n1)C(=O)[O-].[Na+] [Compound I-71] | – | – | 0.5 µg/mL | – | – | 0.25 µg/mL | – | 0.063 µg/mL | 1 µg/mL | 1 µg/mL | ≤ 0.031 µg/mL | 0.25 µg/mL |
